Test results as given in patent US20160102365A1, “ASSAYS, METHODS AND KITS FOR ANALYZING SENSITIVITY AND RESISTANCE TO ANTI-CANCER DRUGS, PREDICTING A CANCER PATIENT'S PROGNOSIS, AND PERSONALIZED TREATMENT STRATEGIES” (UNIVERSITY OF MIAMI, priority 2013, published 2016).

Assays:
Assay type in all cases: cell-based, human
OCI ovarian tumor lines = assay: Panel of oncology drugs: viable cells by Alamar Blue, OCI versus ATCC ovarian tumor lines; settings: 5000 cells/well, WIT-OC medium, serial dilutions, 72-144 hrs incubation
Procedure: In these experiments, ATCC ovarian tumor lines (SKOV3, OV90, TOV-1120 and A2780) and OCI ovarian tumor lines (FCI-P2p, OCI-P5x, OCI-P2a, OCI-C4p, OCI-P7a, OCI-05x, OCI-CSp, FCI-P1p, OCI-P9a1, OCI-P8p, OCI-P3a, OCI-P1a) were plated in WIT-OC medium (5000 cells/well) in 96 well plates. The next day serial dilutions of Taxol, Vincristine, U0126, PJ34, Adriamycin, AS703026, 5-fluorouracil, Cisplatin, PLX4720 and PJ34 were added. The number of viable cells was measured as 590/530 florescence via Alamar Blue after 72-144 hrs incubation, depending on drug. […] Thus, the methods described herein of analyzing sensitivity of a subject's cancerous tumor to an oncology drug and developing a personalized therapy for the subject can be used for any drug.

OCI and SOC cell lines = assay: Drug sensitivity experiments, response compared between OCI and SOC lines in WIT-OC medium
Procedure: (§1) Drug sensitivity experiments: The relative sensitivities of OCI and SOC cell lines to chemotherapy drugs was measured by seeding an equal number of cells in six replicates in 96-well black-walled clear bottom Corning plates at 3000 cells/well, and allowing attachment in WIT-OC for 12 h. Both OCI and SOC cell lines were exposed to drugs in WIT-OC medium. The cell lines were cultured in the presence of drug or vehicle control for 96 h. The fraction of metabolically active cells after drug treatment was measured by incubation with 2:10 (v/v) CellTiter-Blue reagent (Promega Cat#G8081) in media for 2 h, and the reaction was stopped by addition of 3% SDS. Fluorescence was measured in a SpectraMax M5 plate reader (Molecular Devices, CA) using SoftMax software (555EX/585EM).

[1] = system: OCI lines in mRNA/RPPA Cluster 1; assay: Taxol drug sensitivity (metabolic activity / viability) of OCI lines in mRNA/RPPA Cluster 1 compared to SOC lines
Procedure: FIG. 2: Gene expression profiling and Taxol Response of ovarian cancer cell lines identifies two major classes. A) Taxol response of OCI and SOC cell lines in mRNA/RPPA (Reverse Phase Protein Analysis) Cluster 1 vs. Cluster 2. The OCI and SOC lines were plated in triplicates in WIT-OC medium (5000 cells/well) in 96 well plates. The next day 20 nM Taxol was added and metabolic activity was measured as 590/530 fluorescence via Alamar Blue after 5 days. OCI cell lines in mRNA/RPPA Cluster 1 (blue bars), SOC cell lines in Cluster 2 (red bars), OCI lines in Cluster 2 (white bars). The results are representative of more than three four different experiments. B) Proteins that are over-expressed in OCI mRNA/RPPA Cluster 1. […] The data are presented in matrix format in which rows represent cell lines and columns represent antibody probes for each protein. The red and green colors reflect relative high and low expression levels respectively. C) Hierarchical clustering of mRNA data from OCI and SOC lines. […]
as §1, with “Both OCI and SOC cell lines were exposed to drugs in WIT-OC medium. The cell lines were cultured in the presence of drug or vehicle control for 96 h.” left out
Drug sensitivity experiments: The relative sensitivities of OCI and SOC cell lines to Taxol was measured by seeding 3000 cells/well in six replicates in 96-well black-walled clear bottom Corning plates and allowing attachment in WIT-OC for 12 h. […] The fraction of metabolically active cells after drug treatment was measured by incubation with 2:10 (v/v) CellTiter-Blue reagent (Promega Cat#G8081) in media for 2 h, and the reaction was stopped by addition of 3% SDS. […]

OCI lines in Cluster 2 = assay: Taxol drug sensitivity of the subset of OCI lines in Cluster 2; settings: WIT-OC medium; similar to SOC lines
Procedure: FIG. 2: Gene expression profiling and Taxol Response of ovarian cancer cell lines identifies two major classes. A) Taxol response of OCI and SOC cell lines in mRNA/RPPA (Reverse Phase Protein Analysis) Cluster 1 vs. Cluster 2. The OCI and SOC lines were plated in triplicates in WIT-OC medium (5000 cells/well) in 96 well plates. The next day 20 nM Taxol was added and metabolic activity was measured as 590/530 fluorescence via Alamar Blue after 5 days. OCI cell lines in mRNA/RPPA Cluster 1 (blue bars), SOC cell lines in Cluster 2 (red bars), OCI lines in Cluster 2 (white bars). The results are representative of more than three four different experiments. B) Proteins that are over-expressed in OCI mRNA/RPPA Cluster 1. […]
as §1, with “Both OCI and SOC cell lines were exposed to drugs in WIT-OC medium. The cell lines were cultured in the presence of drug or vehicle control for 96 h.” left out, “(555EX/585EM). […]” for “(555EX/585EM).”

With `O=c1[nH]cc(F)c(=O)[nH]1` [5-fluorouracil] the “Resistance of OCI lines to inhibition of cell proliferation compared to standard (ATCC) cell lines” value (OCI ovarian tumor lines) was “more resistant”.
With `COc1cccc2c1C(=O)c1c(O)c3c(c(O)c1C2=O)C[C@@](O)(C(=O)CO)C[C@@H]3O[C@H]1C[C@H](N)[C@H](O)[C@H](C)O1` [Adriamycin] the “Resistance of OCI lines to inhibition of cell proliferation compared to standard (ATCC) cell lines” value (OCI ovarian tumor lines) was “more resistant”.
For `N.N.[Cl][Pt][Cl]` [Cisplatin], the “Difference in drug response between OCI and SOC lines” value (OCI and SOC cell lines) was “did not find a significant difference”.
In the case of `CN(C)CC(=O)Nc1ccc2[nH]c(=O)c3ccccc3c2c1` [PJ34], the “Resistance of OCI lines to inhibition of cell proliferation compared to standard (ATCC) cell lines” value (OCI ovarian tumor lines) is reported as “more resistant”.
`CC(=O)O[C@H]1C(=O)[C@@]2(C)[C@H]([C@H](OC(=O)c3ccccc3)[C@]3(O)C[C@H](OC(=O)[C@H](O)[C@@H](NC(=O)c4ccccc4)c4ccccc4)C(C)=C1C3(C)C)[C@]1(OC(C)=O)CO[C@@H]1C[C@@H]2O` [Taxol] was tested, and the IC50 ([1]; Homo sapiens, OCI lines plated in WIT-OC medium) was 10 to 100 nM, the “IC50 fold higher than the IC50 values in SOC lines in mRNA/RPPA Cluster 2” value ([1]; OCI Cluster 1 vs SOC Cluster 2, WIT-OC medium) was 5-10 fold and the “Sensitivity to Taxol of OCI lines in Cluster 1 relative to SOC lines in Cluster 2” value ([1]; WIT-OC medium, confirmed with a full dose-response curve) was “less sensitive”. The “Sensitivity to Taxol of OCI lines in Cluster 2 compared to OCI lines in Cluster 1” value (OCI lines in Cluster 2) was “more sensitive”.
With `N#CC(=C(/N)Sc1ccccc1N)/C(C#N)=C(\N)Sc1ccccc1N` [U0126] the “Resistance of OCI lines to inhibition of cell proliferation compared to standard (ATCC) cell lines” value (OCI ovarian tumor lines) was “more resistant”.
`CC[C@]1(O)C[C@H]2CN(CCc3c([nH]c4ccccc34)[C@@](C(=O)OC)(c3cc4c(cc3OC)N(C=O)[C@H]3[C@@](O)(C(=O)OC)[C@H](OC(C)=O)[C@]5(CC)C=CCN6CC[C@]43[C@@H]65)C2)C1` [Vincristine] was tested, and the “Difference in drug response between OCI and SOC lines” value (OCI and SOC cell lines) was “similarly different”.
